Here are results for 1 compound from patent publication US11998017B2, “Bio-pesticide for Japanese beetles” (priority 2022, dated 2024).

For this assay, the system named is Japanese beetle. Kind of assay: neurological response / paralysis of Japanese beetle after consuming or absorbing quisqualic acid. Type of assay: in vivo, Popillia Japonica. An excerpt:
The pesticide composition according to one or more embodiments described herein makes use of a phenomenon that is unique to the Japanese beetle. A primary active ingredient of the pesticide is the amino acid quisqualic acid, which elicits a unique neurological response specifically from the Japanese beetle. Quisqualic acid is naturally occurring in the Pelargonium and Quisqualic indica species of plants. As part of this disclosure, it was discovered that ingestion of the plants' essential oil is not required, but that the absorption of the plants' essential oil through contact by the Japanese beetle, can provoke a sufficient neurological response from the beetle, followed by 24-hour paralysis of the Japanese beetle. That is, the Japanese beetle need not consume the composition according to one or more embodiments herein. The composition is an effective pesticide through contact only by the Japanese beetle.
Japanese beetles that do land on the leaves, become saturated with the oil and absorb the paralysis-inducing quisqualic acid. Japanese beetles that do feed on the foliage may then also consume the quisqualic acid. […]

With `N[C@@H](Cn1oc(=O)[nH]c1=O)C(=O)O` [quisqualic acid], where the note is “after consumption or absorption through contact”, the “duration of paralytic state” value was determined as 24 h. Also, the “time until beetles fall into paralytic state” value (beetles that consume or absorb the quisqualic acid) lay within 4 to 6 h.
